We go through one compound from BindingDB's records for doi:10.1021/jm040160b (Research Triangle Institute, 2005).

The assay deals with Neuronal acetylcholine receptor subunit alpha-4/beta-2 (Rattus norvegicus, UniProt P09483+P12390). As to the kind of experiment: Inhibition of [3H]epibatidine binding to Nicotinic acetylcholine receptor alpha4-beta2 in rat cerebral cortex.

Molecules are shown by their SMILES.

Sequence of Neuronal acetylcholine receptor subunit alpha-4/beta-2 (P09483 whole entry): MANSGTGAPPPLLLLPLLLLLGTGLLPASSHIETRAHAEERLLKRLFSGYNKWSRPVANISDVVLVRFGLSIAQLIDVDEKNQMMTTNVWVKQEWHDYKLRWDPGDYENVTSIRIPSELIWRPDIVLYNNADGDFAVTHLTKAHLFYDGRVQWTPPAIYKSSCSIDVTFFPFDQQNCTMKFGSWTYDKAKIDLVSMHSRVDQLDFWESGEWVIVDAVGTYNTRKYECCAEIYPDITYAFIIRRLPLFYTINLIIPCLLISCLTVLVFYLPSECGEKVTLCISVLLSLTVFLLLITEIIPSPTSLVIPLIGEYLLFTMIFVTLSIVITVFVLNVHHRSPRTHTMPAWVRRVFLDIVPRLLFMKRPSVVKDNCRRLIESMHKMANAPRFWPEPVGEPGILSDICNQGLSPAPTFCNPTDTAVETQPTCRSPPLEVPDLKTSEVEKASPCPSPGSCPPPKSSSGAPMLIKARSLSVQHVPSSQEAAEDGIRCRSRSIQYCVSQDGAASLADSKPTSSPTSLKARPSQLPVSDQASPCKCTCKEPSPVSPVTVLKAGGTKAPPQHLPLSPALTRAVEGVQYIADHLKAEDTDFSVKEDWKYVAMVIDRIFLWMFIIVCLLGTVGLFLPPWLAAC
Sequence of Neuronal acetylcholine receptor subunit alpha-4/beta-2 (P12390 whole entry): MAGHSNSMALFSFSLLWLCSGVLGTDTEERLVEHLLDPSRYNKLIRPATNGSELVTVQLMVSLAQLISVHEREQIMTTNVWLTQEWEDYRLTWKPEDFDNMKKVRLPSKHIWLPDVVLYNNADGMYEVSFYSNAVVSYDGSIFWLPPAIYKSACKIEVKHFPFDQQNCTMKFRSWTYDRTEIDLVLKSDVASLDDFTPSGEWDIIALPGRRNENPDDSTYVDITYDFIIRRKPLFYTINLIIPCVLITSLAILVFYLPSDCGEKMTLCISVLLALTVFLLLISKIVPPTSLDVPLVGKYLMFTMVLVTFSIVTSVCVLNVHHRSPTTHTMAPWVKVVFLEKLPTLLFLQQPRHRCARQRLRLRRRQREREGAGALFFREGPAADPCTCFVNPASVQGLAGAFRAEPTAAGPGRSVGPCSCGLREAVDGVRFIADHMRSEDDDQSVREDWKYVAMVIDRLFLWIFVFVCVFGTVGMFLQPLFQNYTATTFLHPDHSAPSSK

Take `Clc1cncc(C2CC3CCC2N3)c1` (stereo unspecified) [2-(5-Chloro-pyridin-3-yl)-7-aza-bicyclo[2.2.1]heptane]: the inhibitory constant (Ki) was 0.06 nM. This counts as picomolar.

The Ki is a measure of affinity in units of concentration, obtained from inhibition or displacement. A higher Ki goes with weaker binding.
